PMC5690597, “Suppression and resolution of autoimmune arthritis by rhesus θ-defensin-1, an immunomodulatory macrocyclic peptide” (PLoS ONE, 2017)
Bridge positions count the residues as written; N and C are the ends. Peptide text beside a SMILES is read from it.

Columns and labels:
[1] = system: IL-6 production by fibroblast-like synoviocytes (FLS); experiment: Expression of IL-6 by stimulated FLS; type: cell-based, DA rat; details: RTD-1 10 μg/ml; TNFα or IL-1β 3 or 10 ng/ml; 24 h; ELISA; n = 12, 3 experiments
Procedure: Fibroblast-like synoviocytes (FLS) were isolated by enzymatic digestion of the synovial tissue from DA rats with PIA as previously described. Cells were washed and suspended in DMEM supplemented with 10% fetal bovine serum (Gibco, Grand Island, NY), 30 mg/ml L-glutamine (Sigma), 250 μg/ml amphotericin B (Sigma), and […] gentamicin (Gibco). After overnight culture, non-adherent cells were removed and adherent cells were cultured to approximately 70–90% confluence and passaged following detachment with 0.25% trypsin-EDTA for 3 min at 37°C. All experiments were performed with FLS after at least four passages.
FLS were cultured in 12-well plates at 4–6 × 10^4 cells/well for 24 h (viability > 95% by trypan blue staining). Medium was replaced and FLS were incubated with TNFα or IL-1β at final concentrations of 3 or 10 ng/ml plus RTD-1 (10 μg/ml in 0.01% acetic acid (HOAc)) or vehicle alone. After 24 h incubation, FLS culture supernatants were removed, clarified by centrifugation, and analyzed for IL-6 by ELISA (Invitrogen, Carlsbad, CA).

[2] = cited from earlier work

SMILES: CC[C@H](C)[C@@H]1NC(=O)[C@@H]2CSSC[C@H](NC(=O)[C@H](CCCNC(=N)N)NC(=O)[C@@H]3CSSC[C@H](NC1=O)C(=O)N[C@@H]([C@@H](C)O)C(=O)N[C@@H](CCCNC(=N)N)C(=O)NCC(=O)N[C@@H](Cc1ccccc1)C(=O)N3)C(=O)N[C@@H](CC(C)C)C(=O)N[C@H]1CSSC[C@H](NC(=O)[C@H](C(C)C)NC(=O)CNC(=O)[C@H](CCCNC(=N)N)NC(=O)[C@H](CCCNC(=N)N)NC1=O)C(=O)N[C@@H](CCCNC(=N)N)C(=O)N2 [RTD-1, rhesus θ-defensin 1] (cyclo(GFCRCLCRRGVCRCICTR); disulfide 3-16, 5-14, 7-12)
- reduction of IL-6 production by FLS [1]: 27.3–42.2%
- stability in human plasma [2]: highly stable
